In paper PMC11985751, “Synthesis, bioactivity, and molecular docking studies: novel arylpiperazine derivatives as potential new-resistant AR antagonists” (Frontiers in Chemistry, 2025) one finds IC50 and activity data, which are given here for 15 molecules.

For one assay, the system named is PC-3. Briefly: In vitro cytotoxicity, CCK-8 assay. Format: cell-based, human. Particulars: Homo sapiens, PC-3, PC-3 cells, CCK-8, mean ± SD of three trials. The procedure: (§1) PC-3 and WPMY-1 cells were cultured in Dulbecco’s modiffcation Eagle’s medium (DMEM, Invitrogen, Carlsbad, CA, United States) supplemented with 10% fetal bovine serum (FBS, Hyclone, Logan, UT, United States), 100 U/mL penicillin and 0.1 mg/mL streptomycin (Invitrogen). DU145 cells were cultured in RPMI1640 media supplemented with 10% fetal bovine serum (FBS, Hyclone), 100 U/mL penicillin and 0.1 mg/mL streptomycin (Invitrogen). LNCaP cells were cultured in F12 media supplemented with 10% fetal bovine serum (FBS, Hyclone), 100 U/mL penicillin and 0.1 mg/mL streptomycin (Invitrogen). The cells were incubated at 37°C in a humidified atmosphere with 5% CO2([Chen et al., 2025]; [Jiang et al., 2024]). […]
(§2) The compound concentrations were set at 30, 15, 7.5, 3.75, 1.88, and 0.94 μmol/L. The absorbance (A) was measured at 450 nm using a microplate reader. […] All experiments were repeated three times under identical conditions, and the mean value was taken as the final result.
(§3) The cytotoxic activity of derivatives 5–24 against three human prostate cancer cell lines (PC-3, LNCaP, and DU145) and one type of human normal prostate epithelial cells was evaluated using the CCK-8 method.

In a further assay the test system is LNCaP. Briefly: In vitro cytotoxicity, CCK-8 assay. Particulars: Homo sapiens, LNCaP, LNCaP cells, CCK-8, mean ± SD of three trials. Format: cell-based, human. As for the experimental part:
PC-3 and WPMY-1 cells were cultured in Dulbecco’s modiffcation Eagle’s medium (DMEM, Invitrogen, Carlsbad, CA, United States) supplemented with 10% fetal bovine serum (FBS, Hyclone, Logan, UT, United States), 100 U/mL penicillin and 0.1 mg/mL streptomycin (Invitrogen). DU145 cells were cultured in RPMI1640 media supplemented with 10% fetal bovine serum (FBS, Hyclone), 100 U/mL penicillin and 0.1 mg/mL streptomycin (Invitrogen). LNCaP cells were cultured in F12 media supplemented with 10% fetal bovine serum (FBS, Hyclone), 100 U/mL penicillin and 0.1 mg/mL streptomycin (Invitrogen). The cells were incubated at 37°C in a humidified atmosphere with 5% CO2([Chen et al., 2025]; [Jiang et al., 2024]).
The proliferative capacity of cells was evaluated through the implementation of a Cell Counting Kit-8 (CCK-8) assay, supplied by Dojindo (Japan), to quantify cellular growth. Post-transfection, cells were dispensed into a 96-well microplate at a density of 3 × 10^3 cells per well and incubated for intervals of 0, 24, 48, 72, 96, and 120 h. Following this, 10 μL of the CCK-8 solution was introduced into each well and the plates were returned to the incubator for an additional 2-h period at 37°C under 5% CO2 conditions. Absorbance readings at 450 nm were subsequently taken using an ELISA reader manufactured by Bio Tek (United States) ([Chen et al., 2022]; [Zhou et al., 2024]).
as §2, §3

The next assay relates to DU145. Briefly: In vitro cytotoxicity, CCK-8 assay. It counts as cell-based. Particulars: Homo sapiens, DU-145; DU145 cells, CCK-8, mean ± SD of three trials. As for the experimental part:
as §1, §2, §3

In a further assay the test system is WPMY-1. Briefly: In vitro cytotoxicity, CCK-8 assay (normal prostatic epithelial cells). Format: cell-based. The settings on record: Homo sapiens; WPMY-1 normal prostatic epithelial cells, CCK-8, mean ± SD of three trials. The procedure: as §1, §2, §3
The next assay addresses T1, AR (Homo sapiens, UniProt P10275).
T1 sequence (P10275 1-920): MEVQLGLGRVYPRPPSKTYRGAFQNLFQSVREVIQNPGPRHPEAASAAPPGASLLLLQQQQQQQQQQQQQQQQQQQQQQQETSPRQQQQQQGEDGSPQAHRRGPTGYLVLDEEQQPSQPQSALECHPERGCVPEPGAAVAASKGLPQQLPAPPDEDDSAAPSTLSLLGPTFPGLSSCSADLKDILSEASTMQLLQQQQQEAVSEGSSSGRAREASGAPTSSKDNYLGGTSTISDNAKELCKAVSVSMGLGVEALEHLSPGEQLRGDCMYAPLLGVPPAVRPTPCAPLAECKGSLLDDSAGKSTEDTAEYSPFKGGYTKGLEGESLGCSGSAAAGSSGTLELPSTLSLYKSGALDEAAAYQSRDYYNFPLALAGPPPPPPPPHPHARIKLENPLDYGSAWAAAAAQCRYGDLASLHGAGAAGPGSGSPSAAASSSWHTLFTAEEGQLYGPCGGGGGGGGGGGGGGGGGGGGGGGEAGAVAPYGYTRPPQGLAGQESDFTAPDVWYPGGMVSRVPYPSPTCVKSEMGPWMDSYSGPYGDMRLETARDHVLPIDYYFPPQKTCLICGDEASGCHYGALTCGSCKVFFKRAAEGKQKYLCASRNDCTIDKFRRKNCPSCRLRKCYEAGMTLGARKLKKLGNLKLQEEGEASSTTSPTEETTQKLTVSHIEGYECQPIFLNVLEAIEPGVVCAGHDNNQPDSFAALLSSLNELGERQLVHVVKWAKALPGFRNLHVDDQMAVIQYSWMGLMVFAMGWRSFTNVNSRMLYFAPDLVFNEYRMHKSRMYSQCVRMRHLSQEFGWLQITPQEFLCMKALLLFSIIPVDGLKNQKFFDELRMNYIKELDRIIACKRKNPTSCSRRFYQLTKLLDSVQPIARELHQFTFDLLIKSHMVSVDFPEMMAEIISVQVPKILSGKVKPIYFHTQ
Briefly: AR reporter gene (luciferase) assay, co-treatment with 1 nM R1881. Format: cell-based. The settings on record: 10 μM compound, inhibition rate as ratio to R1881 control, read-out: AR antagonistic activity% (10 μM). As for the experimental part:
RLUs were measured using a luminometer (GloMaxTM 96-Microplate Luminometer, Promega) and are reported as the mean ± SEM of three individual experiments. For agonists, fold of induction = LUinduced/RLUuninduced. For antagonists, % of control = 100 × RLU (agonist + antagonist)/RLU (agonist alone). All RLUs were normalized against ffreffy RLUs/Renilla RLUs. Data are expressed as EC50/IC50 values in μM, and the IC50 of […] (μM) was calculated by plotting the data using nonlinear regression analysis in Graph-Pad Prism 5 software.

The next assay has as its target T2, AR-LBD (GST) (Rattus norvegicus, UniProt P15207).
T2 sequence (P15207 651-882 limits assumed): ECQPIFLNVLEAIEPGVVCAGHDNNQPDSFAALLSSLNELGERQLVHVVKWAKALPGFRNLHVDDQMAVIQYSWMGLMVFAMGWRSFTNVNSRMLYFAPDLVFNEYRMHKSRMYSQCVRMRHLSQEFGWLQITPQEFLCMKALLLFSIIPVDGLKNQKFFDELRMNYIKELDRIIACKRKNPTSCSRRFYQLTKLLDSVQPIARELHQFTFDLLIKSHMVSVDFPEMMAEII
Briefly: Fluorescence polarization, PolarScreen AR Competitor Assay, Green.

Procedure for AR-LBD (GST): Brieffy, the assay entails titration of the test compound against a preformed complex of Fluormone™AL Green and the AR-LBD (GST). […] Data analysis for the ligand binding assays was performed using Prism software (GraphPad Software, Inc.).

On to `COc1ccccc1N1CCN(CC(O)COc2cccc3ccccc23)CC1` (stereo not drawn) [Naftopidil, reference compound], for which the IC50 in the assay with PC-3 is 42.1 ± 0.79 µM; in the assay with LNCaP, 22.4 ± 0.61 µM; in the assay on DU145, 34.58 ± 0.31 µM; with WPMY-1, greater than 50 µM.

As to `CCOc1ccc(OCCc2ccc(CN3CCN(C(c4ccccc4)c4ccccc4)CC3)cc2)cc1` [Compound 16, 1-benzhydryl-4-(4-(2-(4-ethoxyphenoxy)ethyl)benzyl)piperazine], the IC50 was 13.6 ± 0.09 µM with PC-3, greater than 50 µM with LNCaP, greater than 50 µM in the assay with DU145 and greater than 50 µM with WPMY-1.

Regarding `N#Cc1ccc(OCCc2ccc(CN3CCN(C(c4ccccc4)c4ccccc4)CC3)cc2)cc1` [Compound 8, 4-(4-((4-benzhydrylpiperazin-1-yl)methyl)phenethoxy)benzonitrile], the IC50 was 12.54 ± 0.11 µM with PC-3, 22.36 ± 0.2 µM in the assay on LNCaP, 19.83 ± 0.14 µM with DU145 and 17.56 ± 0.12 µM in the assay with WPMY-1.

Consider `c1ccc(OCCc2ccc(CN3CCN(C(c4ccccc4)c4ccccc4)CC3)cc2)cc1` [Compound 5, 1-benzhydryl-4-(4-(2-phenoxyethyl)benzyl)piperazine], for which the IC50 was 13.08 ± 0.12 µM in the assay with PC-3, greater than 50 µM in the assay on LNCaP, greater than 50 µM with DU145 and greater than 50 µM with WPMY-1.

Regarding `Clc1ccccc1OCCc1ccc(CN2CCN(C(c3ccccc3)c3ccccc3)CC2)cc1` [Compound 13, 1-benzhydryl-4-(4-(2-(2-chlorophenoxy)ethyl)benzyl)piperazine], the IC50 with PC-3 was 15.35 ± 0.08 µM; in the assay on LNCaP it was 12.2 ± 0.25 µM; in the assay with DU145, 21.24 ± 0.16 µM; in the assay on WPMY-1, 17.83 ± 0.17 µM.

Take `Cc1cccc(OCCc2ccc(CN3CCN(C(c4ccccc4)c4ccccc4)CC3)cc2)c1` [Compound 12, 1-benzhydryl-4-(4-(2-(m-tolyloxy)ethyl)benzyl)piperazine]: the IC50 in the assay on PC-3 is greater than 50 µM; with LNCaP, 19.6 ± 0.23 µM; in the assay on DU145, 34.43 ± 0.15 µM; with WPMY-1, 28.54 ± 0.16 µM.

`Cc1ccc(OCCc2ccc(CN3CCN(C(c4ccccc4)c4ccccc4)CC3)cc2)cc1` [Compound 15, 1-benzhydryl-4-(4-(2-(p-tolyloxy)ethyl)benzyl)piperazine]: the half-inhibitory concentration (IC50) with PC-3 is 20.49 ± 0.12 µM; in the assay on LNCaP, 9.29 ± 0.23 µM; with DU145, 13.7 ± 0.14 µM; in the assay on WPMY-1, 14.72 ± 0.14 µM.

For `Cc1ccc(OCCc2ccc(CN3CCN(C(c4ccccc4)c4ccccc4)CC3)cc2)cc1C` [Compound 20, 1-benzhydryl-4-(4-(2-(3,4-dimethylphenoxy)ethyl)benzyl)piperazine], the IC50 in the assay with DU145 is 3.89 ± 0.14 µM; in the assay with WPMY-1 it was greater than 50 µM; on AR-LBD (GST), 1.66 ± 0.12 µM. In addition, on AR, the activity at 10 µM was greater than 60%.

Consider `Ic1ccc(OCCc2ccc(CN3CCN(C(c4ccccc4)c4ccccc4)CC3)cc2)cc1` [Compound 9, 1-benzhydryl-4-(4-(2-(4-iodophenoxy)ethyl)benzyl)piperazine], for which the IC50 in the assay on PC-3 was 15.2 ± 0.19 µM; in the assay on LNCaP, greater than 50 µM; in the assay with DU145, greater than 50 µM; in the assay with WPMY-1 it was greater than 50 µM.

As to `Brc1ccccc1OCCc1ccc(CN2CCN(C(c3ccccc3)c3ccccc3)CC2)cc1` [Compound 14, 1-benzhydryl-4-(4-(2-(2-bromophenoxy)ethyl)benzyl)piperazine], the IC50 with PC-3 is 19.12 ± 0.16 µM; in the assay with LNCaP it was greater than 50 µM; in the assay with DU145 it was greater than 50 µM; in the assay with WPMY-1, greater than 50 µM.

`c1ccc(C(c2ccccc2)N2CCN(Cc3ccc(CCOc4cccc5c4CCCC5)cc3)CC2)cc1` [Compound 17, 1-benzhydryl-4-(4-(2-((5,6,7,8-tetrahydronaphthalen-1-yl)oxy)ethyl)benzyl)piperazine]: the IC50 was 7.32 ± 0.08 µM in the assay with DU145, greater than 50 µM with WPMY-1 and 1.14 ± 0.12 µM at AR-LBD (GST). The activity at 10 µM at AR was greater than 60%.

In the case of `Fc1ccc(OCCc2ccc(CN3CCN(C(c4ccccc4)c4ccccc4)CC3)cc2)cc1` [Compound 6, 1-benzhydryl-4-(4-(2-(4-fluorophenoxy)ethyl)benzyl)piperazine], the IC50 with PC-3 is 34.39 ± 0.17 µM; with LNCaP, greater than 50 µM; with DU145 it was greater than 50 µM; in the assay with WPMY-1, greater than 50 µM.

For the molecule `Cc1ccccc1OCCc1ccc(CN2CCN(C(c3ccccc3)c3ccccc3)CC2)cc1` [Compound 19, 1-benzhydryl-4-(4-(2-(o-tolyloxy)ethyl)benzyl)piperazine], the IC50 in the assay on DU145 is 0.87 ± 0.04 µM; in the assay with WPMY-1, greater than 50 µM; at AR-LBD (GST) it was 1.01 ± 0.03 µM. Moreover, the activity at 10 µM on AR is greater than 60%.

Regarding `c1ccc(C(c2ccccc2)N2CCN(Cc3ccc(CCOc4ccc5c(c4)CCCC5)cc3)CC2)cc1` [Compound 18, 1-benzhydryl-4-(4-(2-((5,6,7,8-tetrahydronaphthalen-2-yl)oxy)ethyl)benzyl)piperazine], the IC50 was 5.02 ± 0.12 µM in the assay on PC-3, greater than 50 µM in the assay on LNCaP, 14.4 ± 0.15 µM in the assay on DU145 and greater than 50 µM in the assay with WPMY-1.

In the case of `Clc1ccc(OCCc2ccc(CN3CCN(C(c4ccccc4)c4ccccc4)CC3)cc2)cc1Cl` [Compound 10, 1-benzhydryl-4-(4-(2-(3,4-dichlorophenoxy)ethyl)benzyl)piperazine], the half-inhibitory concentration (IC50) in the assay with PC-3 was 17.44 ± 0.07 µM; with LNCaP, greater than 50 µM; in the assay with DU145, greater than 50 µM; in the assay on WPMY-1 it was greater than 50 µM.
